Some test systems named below: TK-10; OVCAR-3; SF-295; MDA-N; SW-620; SN12C; SNB-19; U-251; A549; NCI-H522; HCT-15; OVCAR-4; NCI-H23; EKVX; PC-3; Hs-578T; UACC-62; Malme-3M; UACC-257.
Common to all, as to test: NCI anticancer screen, dose series, 48 h

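Grown in 96-well plates, cells were treated for 48 hours with each compound at five concentrations. Insufficient inhibition: endpoint recorded as highest concentration tested. GI50: concentration for 50% inhibition of growth.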 The source made the active and inactive calls. Cut-off read from the data, not from the text of the source: active = GI50 up to about 1.1 µM and inactive = higher.

Regarding `n1onc2c1NC1Nc3nonc3NC1N2` (centres undefined), the GI50 with TK-10, with OVCAR-3, with SF-295, in the experiment on MDA-N, in the experiment on SW-620 and with SN12C was > 100 µM (inactive) throughout. Moreover, the GI50 in the experiment on SNB-19 is 27.7 µM (inactive); in the experiment on U-251, > 100 µM (inactive); in the experiment with A549 it was > 100 µM (inactive); in the experiment with NCI-H522, > 100 µM (inactive); in the experiment on HCT-15, above 100 µM; with OVCAR-4, > 100 µM (inactive). Also, the GI50 in the experiment on NCI-H23, with EKVX, with PC-3 and in the experiment on Hs-578T was > 100 µM (inactive) throughout.
Take `CC(C)=CCC[C@@H](C)C1=C(O)C(=O)C(C)=C(Nc2ccccc2Br)C1=O`: the GI50 was 22.4 µM (inactive) in the experiment with TK-10; 4.13 µM (inactive) in the experiment on OVCAR-3; 3.85 µM (inactive) in the experiment on SF-295; 14.1 µM (inactive) in the experiment with MDA-N; 17.3 µM (inactive) in the experiment on SW-620; 12.5 µM (inactive) with SN12C. The GI50 with SNB-19 was 16.4 µM (inactive); with U-251, 8.91 µM (inactive); in the experiment on A549 it was 17.8 µM (inactive); in the experiment with HCT-15, 6.65 µM; in the experiment on OVCAR-4, 6.52 µM (inactive); in the experiment on NCI-H23, 9.71 µM (inactive). The GI50 in the experiment with UACC-62 was 13.3 µM (inactive); in the experiment on EKVX, 17.3 µM (inactive); in the experiment with Malme-3M it was 9.4 µM (inactive); in the experiment with UACC-257 it was 14.9 µM (inactive); with PC-3, 8.51 µM (inactive); with Hs-578T, 13.8 µM (inactive).
Take `O=C(/C=C/C=C/c1ccccc1)c1ccc2c(c1)CCCC2`: the GI50 in the experiment on TK-10 is 73.6 µM (inactive); with OVCAR-3, 35.6 µM (inactive); in the experiment on SF-295 it was 58.3 µM (inactive); with MDA-N, 19.6 µM (inactive); in the experiment with SW-620, 45.8 µM (inactive); in the experiment on SN12C, 32.5 µM (inactive). The GI50 with SNB-19 is 97.7 µM (inactive); in the experiment on U-251, 35 µM (inactive); in the experiment with A549 it was 49.8 µM (inactive); in the experiment with NCI-H522 it was 13.4 µM (inactive); in the experiment with HCT-15, 36 µM; in the experiment with OVCAR-4, 43.7 µM (inactive). For the same molecule, the GI50 was 35 µM (inactive) in the experiment on NCI-H23; > 100 µM (inactive) with UACC-62; 36.5 µM (inactive) with EKVX; 31.1 µM (inactive) with UACC-257; 36.5 µM (inactive) in the experiment with PC-3; 4.84 µM (inactive) in the experiment with Hs-578T.
As to `NC1=Nc2ncccc2C(=O)NN1`, the GI50 in the experiment on TK-10, in the experiment with OVCAR-3, with SF-295, with MDA-N, in the experiment on SW-620 and with SN12C was > 10 µM (inactive) each time. For the same molecule, the GI50 in the experiment on SNB-19 is > 10 µM (inactive); in the experiment with U-251 it was > 10 µM (inactive); with A549 it was > 10 µM (inactive); in the experiment with HCT-15 it was above 10 µM; in the experiment with NCI-H23 it was > 10 µM (inactive); in the experiment on UACC-62, > 10 µM (inactive). Also, the GI50 in the experiment with EKVX is > 10 µM (inactive); with Malme-3M, > 10 µM (inactive); in the experiment with UACC-257 it was > 10 µM (inactive); with PC-3, > 10 µM (inactive); in the experiment with Hs-578T, 0.382 µM (active).

(Values after ChEMBL document CHEMBL1201862, “PubChem BioAssay data set” (2004).)
